Data taken from article PMC8286840, “Identifying SARS-CoV-2 antiviral compounds by screening for small molecule inhibitors of Nsp3 papain-like protease” (Biochemical Journal, 2021).
Where a name gives a salt, the structure may show the parent alone. Read-outs that look alike come from different tables or passages of the source. Where a SMILES comes first, the peptide text is derived from it. Bridges are numbered along the chain shown (N, C = ends). [ ]: non-standard residue; d: D form. The star is where a group is joined. NMePhe(4-NMe2) = CN[C@@H](Cc1ccc(N(C)C)cc1)C(=O)O; Pip(4-oxo) = O=C1CCN[C@H](C(=O)O)C1; Picolinoyl(3-OH) = O=C(c1ncccc1O)*; Phg = N[C@H](C(=O)O)c1ccccc1; dAbu = CC[C@@H](N)C(=O)O

Columns and labels:
[1] = molecular target: T1, SARS-CoV-2 PLpro (nsp3 1564–1878) (Severe acute respiratory syndrome coronavirus 2, UniProt P0DTD1); assay: biochemical; design: FRET-quenched peptide (Pro3) cleavage by PLpro, 10 min pre-incubation, slope over 20 min, normalised to no-compound control; conditions: low concentration screen, read-out: % of control remaining
[2] = molecular target: T1, SARS-CoV-2 PLpro (nsp3 1564–1878); assay: biochemical; design: FRET-quenched peptide (Pro3) cleavage by PLpro, 10 min pre-incubation, slope over 20 min, normalised to no-compound control; conditions: high concentration screen, read-out: % of control remaining

Compound: C[C@]12C=CC(=O)C=C1CC[C@@H]1[C@@H]2C(=O)C[C@@]2(C)[C@H]1CC[C@]2(O)C(=O)CO [Prednisone]
- remaining activity at 1.25 µM ([1]; Well no.=2149): 97.7%
- remaining activity at 1.25 µM ([1]; Well no.=7429): 109%
- remaining activity at 3.75 µM ([2]; Well no.=2149): 103%
- remaining activity at 3.75 µM ([2]; Well no.=7429): 101%

Compound: CC(=O)[C@H]1CC[C@H]2[C@@H]3CC=C4C[C@@H](OS(=O)(=O)O)CC[C@]4(C)[C@H]3CC[C@]12C [Pregnenolone sulfate sodium]
- remaining activity at 1.25 µM ([1]; Well no.=1169): 101%
- remaining activity at 3.75 µM ([2]; Well no.=1169): 102%

Compound: CC(=O)[C@H]1CC[C@H]2[C@@H]3CC=C4C[C@@H](O)CC[C@]4(C)[C@H]3CC[C@]12C [Pregnenolone]
- remaining activity at 1.25 µM ([1]; Well no.=2151): 103%
- remaining activity at 1.25 µM ([1]; Well no.=6277): 106%
- remaining activity at 1.25 µM ([1]; Well no.=6919): 108%
- remaining activity at 3.75 µM ([2]; Well no.=2151): 103%
- remaining activity at 3.75 µM ([2]; Well no.=6277): 102%
- remaining activity at 3.75 µM ([2]; Well no.=6919): 106%

Compound: COCCOc1ccc(N2CCN(CCn3ncc4c3nc(N)n3nc(-c5ccco5)nc43)CC2)cc1 [Preladenant]
- remaining activity at 1.25 µM ([1]; Well no.=7141): 102%
- remaining activity at 3.75 µM ([2]; Well no.=7141): 102%

Compound: CCCNC(C)C(=O)Nc1ccccc1C (stereo not drawn) [Prilocaine hydrochloride]
- remaining activity at 1.25 µM ([1]; Well no.=1355): 97.2%
- remaining activity at 3.75 µM ([2]; Well no.=1355): 98.5%

Compound: CCCNC(C)C(=O)Nc1ccccc1C (stereo not drawn) [Prilocaine]
- remaining activity at 1.25 µM ([1]; Well no.=4616): 100%
- remaining activity at 3.75 µM ([2]; Well no.=4616): 93.7%

Compound: COc1cc(NC(C)CCCN)c2ncccc2c1 (stereo not drawn) [Primaquine]
- remaining activity at 1.25 µM ([1]; Well no.=2153): 97.8%
- remaining activity at 3.75 µM ([2]; Well no.=2153): 98.9%

Compound: CCC1(c2ccccc2)C(=O)NCNC1=O [Primidone]
- remaining activity at 1.25 µM ([1]; Well no.=1443): 101%
- remaining activity at 3.75 µM ([2]; Well no.=1443): 95.8%

Compound: CC[C@H]1NC(=O)[C@@H](NC(=O)c2ncccc2O)[C@@H](C)OC(=O)[C@H](c2ccccc2)NC(=O)[C@@H]2CC(=O)CCN2C(=O)[C@H](Cc2ccc(N(C)C)cc2)N(C)C(=O)[C@@H]2CCCN2C1=O [Pristinamycin IA] ({Picolinoyl(3-OH)}-T[dAbu]P[NMePhe(4-NMe2)][Pip(4-oxo)][Phg]; ester 1-C)
- remaining activity at 1.25 µM ([1]; Well no.=7980): 96.9%
- remaining activity at 3.75 µM ([2]; Well no.=7980): 96.6%

Compound: CCCN(CCC)S(=O)(=O)c1ccc(C(=O)O)cc1 [Probenecid (Benemid)]
- remaining activity at 1.25 µM ([1]; Well no.=4972): 95.9%
- remaining activity at 3.75 µM ([2]; Well no.=4972): 91.7%

Compound: CC(C)(Sc1cc(C(C)(C)C)c(O)c(C(C)(C)C)c1)Sc1cc(C(C)(C)C)c(O)c(C(C)(C)C)c1 [Probucol]
- remaining activity at 1.25 µM ([1]; Well no.=4083): 98.5%
- remaining activity at 3.75 µM ([2]; Well no.=4083): 105%

Compound: CCN(CC)CCNC(=O)c1ccc(N)cc1 [Procainamide hydrochloride]
- remaining activity at 1.25 µM ([1]; Well no.=1307): 96.8%
- remaining activity at 3.75 µM ([2]; Well no.=1307): 98.9%

Compound: CCN(CC)CCNC(=O)c1ccc(N)cc1 [Procainamide.HCl]
- remaining activity at 1.25 µM ([1]; Well no.=1645): 108%
- remaining activity at 3.75 µM ([2]; Well no.=1645): 107%

Compound: CCN(CC)CCOC(=O)c1ccc(N)cc1 [Procaine hydrochloride]
- remaining activity at 1.25 µM ([1]; Well no.=1165): 103%
- remaining activity at 3.75 µM ([2]; Well no.=1165): 105%

Compound: CNNCc1ccc(C(=O)NC(C)C)cc1 [Procarbazine]
- remaining activity at 1.25 µM ([1]; Well no.=2145): 104%
- remaining activity at 3.75 µM ([2]; Well no.=2145): 105%

Compound: CCC(NC(C)C)C(O)c1ccc(O)c2[nH]c(=O)ccc12 (stereo not drawn) [Procaterol.HCl]
- remaining activity at 1.25 µM ([1]; Well no.=1745): 99.6%
- remaining activity at 3.75 µM ([2]; Well no.=1745): 101%

Compound: CN1CCN(CCCN2c3ccccc3Sc3ccc(Cl)cc32)CC1 [Prochlorperazine dimaleate]
- remaining activity at 1.25 µM ([1]; Well no.=1497): 99.3%
- remaining activity at 3.75 µM ([2]; Well no.=1497): 101%

Compound: O=C1N[C@H](C(=O)O)CS1 [Procysteine]
- remaining activity at 1.25 µM ([1]; Well no.=3897): 104%
- remaining activity at 3.75 µM ([2]; Well no.=3897): 103%

Compound: CC(=O)[C@H]1CC[C@H]2[C@@H]3CCC4=CC(=O)CC[C@]4(C)[C@H]3CC[C@]12C [Progesterone]
- remaining activity at 1.25 µM ([1]; Well no.=852): 106%
- remaining activity at 1.25 µM ([1]; Well no.=2143): 95.2%
- remaining activity at 1.25 µM ([1]; Well no.=7071): 105%
- remaining activity at 3.75 µM ([2]; Well no.=852): 107%
- remaining activity at 3.75 µM ([2]; Well no.=2143): 101%
- remaining activity at 3.75 µM ([2]; Well no.=7071): 104%

Compound: CCCN(CCC)C(=O)C(CCC(=O)O)NC(=O)c1ccccc1 (stereo not drawn) [Proglumide]
- remaining activity at 1.25 µM ([1]; Well no.=941): 104%
- remaining activity at 3.75 µM ([2]; Well no.=941): 100%

Compound: CN(C)CCCN1c2ccccc2Sc2ccccc21 [Promazine hydrochloride]
- remaining activity at 1.25 µM ([1]; Well no.=1155): 104%
- remaining activity at 3.75 µM ([2]; Well no.=1155): 102%

Compound: CC(CN1c2ccccc2Sc2ccccc21)N(C)C (stereo not drawn) [Promethazine hydrochloride]
- remaining activity at 1.25 µM ([1]; Well no.=860): 100%
- remaining activity at 3.75 µM ([2]; Well no.=860): 101%

Compound: CC(CN1c2ccccc2Sc2ccccc21)N(C)C (stereo not drawn) [Promethazine.HCl]
- remaining activity at 1.25 µM ([1]; Well no.=1640): 96.2%
- remaining activity at 3.75 µM ([2]; Well no.=1640): 97.2%

Compound: CCCNCC(O)COc1ccccc1C(=O)CCc1ccccc1 (stereo not drawn) [Propafenone hydrochloride]
- remaining activity at 1.25 µM ([1]; Well no.=956): 101%
- remaining activity at 3.75 µM ([2]; Well no.=956): 101%

Compound: CCCNCC(O)COc1ccccc1C(=O)CCc1ccccc1 (stereo not drawn) [Propafenone]
- remaining activity at 1.25 µM ([1]; Well no.=1641): 109%
- remaining activity at 3.75 µM ([2]; Well no.=1641): 110%

Compound: CC(C)[N+](C)(CCOC(=O)C1c2ccccc2Oc2ccccc21)C(C)C [Propantheline bromide]
- remaining activity at 1.25 µM ([1]; Well no.=1401): 102%
- remaining activity at 3.75 µM ([2]; Well no.=1401): 102%

Compound: CCCn1cnc2c1c(=O)n(CCCCC(C)=O)c(=O)n2C [Propentofylline]
- remaining activity at 1.25 µM ([1]; Well no.=1403): 95.1%
- remaining activity at 3.75 µM ([2]; Well no.=1403): 94%

Compound: CCC(=O)c1ccc2c(c1)N(CCCN(C)C)c1ccccc1S2 [Propionylpromazine hydrochloride]
- remaining activity at 1.25 µM ([1]; Well no.=1301): 103%
- remaining activity at 3.75 µM ([2]; Well no.=1301): 106%

Compound: CC(C)c1cccc(C(C)C)c1O [Propofol]
- remaining activity at 1.25 µM ([1]; Well no.=544): 104%
- remaining activity at 1.25 µM ([1]; Well no.=1893): 92.7%
- remaining activity at 3.75 µM ([2]; Well no.=544): 103%
- remaining activity at 3.75 µM ([2]; Well no.=1893): 89.6%

Compound: CCCOC(=O)c1ccc(O)cc1 [Propylparaben]
- remaining activity at 1.25 µM ([1]; Well no.=7453): 105%
- remaining activity at 3.75 µM ([2]; Well no.=7453): 101%

Compound: CCCc1cc(=O)[nH]c(=S)[nH]1 [Propylthiouracil]
- remaining activity at 1.25 µM ([1]; Well no.=4670): 98.7%
- remaining activity at 3.75 µM ([2]; Well no.=4670): 94.9%

Compound: CCCCC[C@H](O)/C=C/[C@H]1C=CC(=O)[C@@H]1CCCCCCC(=O)O [Prostaglandin A1]
- remaining activity at 1.25 µM ([1]; Well no.=3086): 99.1%
- remaining activity at 1.25 µM ([1]; Well no.=4235): 89.4%
- remaining activity at 3.75 µM ([2]; Well no.=3086): 101%
- remaining activity at 3.75 µM ([2]; Well no.=4235): 94.9%
